Results as given in patent US8410302B2, “Methoxyimino compounds and fungicide composition comprising same” (Kyung Nong Corporation, priority 2007, dated 2013).
Like-named read-outs stand apart in the source and are kept apart here.

Experiments:
[1] = tested on: Puccinia recondita; test: Fungicidal activity against wheat leaf rust (WLR) disease, control value; type: in vivo; details: for pest or weed control at 2 ppm / pest or weed control at 10 ppm / pest or weed control at 50 ppm / pest or weed control at 100 ppm: read-out: WLR control value (C.V.)
[2] = tested on: Pyricularia oryzae Carvara KA301; test: whole plant or invertebrate; type: in vivo; details: for pest or weed control at 2 ppm / pest or weed control at 10 ppm / pest or weed control at 50 ppm / pest or weed control at 100 ppm: Pyricularia oryzae, read-out: RCB control value (C.V.); for RCB control value (C.V.): rice blast
[3] = tested on: Phytophthora infestans; test: whole plant or invertebrate; type: in vivo; details: for TLB control value (C.V.): tomato late blight
[4] = tested on: Rhizoctonia solani AG-1; test: Fungicidal activity against rice sheath blight (RSB) disease, control value; details: for pest or weed control at 2 ppm / pest or weed control at 10 ppm / pest or weed control at 50 ppm / pest or weed control at 100 ppm: Rhizoctonia solani, AG1, in Oryza sativa, read-out: RSB control value (C.V.); for RSB control value (C.V.): rice sheath blight
[5] = tested on: Botrytis cinerae; test: Fungicidal activity against cucumber gray mold rot (CGM) disease, control value; type: in vivo; details: 100 ppm; for pest or weed control at 100 ppm: Botrytis, read-out: CGM control value (C.V.)
Experimental: Botrytis cinerae, which was isolated from cucumber infected thereby, was inoculated on a potato agar medium (PEC) and cultured under a 12L/12D cycle at 25° C. for 15 days to form spore. The spores were scraped, filtered through a gauze and then suspended in Potato Dextrose broth at a concentration of 1×10^6 spore/ml. The spore suspension was sprayed on a cucumber plant having one leaf. The cucumber plant was held in a humidified room at 20° C. for 3 days. L.A. on a leaf was measured to calculate a C.V.

[6] = tested on: Erysiphae graminis; test: Fungicidal activity against barley powdery mildew (BPM) disease, control value; type: in vivo; details: for pest or weed control at 2 ppm / pest or weed control at 10 ppm / pest or weed control at 50 ppm / pest or weed control at 100 ppm: 168 h, read-out: BPM control value (C.V.)
[7] = Phytophthora infestans, in Solanum lycopersicum, read-out: TLB control value (C.V.)
[8] = Hordeum vulgare, 2 ppm, barley powdery mildew
[9] = Hordeum vulgare, 10 ppm, barley powdery mildew
[10] = Hordeum vulgare, 50 ppm, barley powdery mildew
[11] = Hordeum vulgare, 100 ppm, barley powdery mildew

Compound `CNC(=O)/C(=N/OC)c1ccccc1COc1cccc(C=C(Cl)Cl)c1Cl` [Example 44, (E)-2-(2-((2-chloro-3-(2,2-dichlorovinyl)phenoxy)methyl)phenyl)-2-methoxyimino-N-methylacetamide] has a pest or weed control at 2 ppm ([1]; 2 ppm, wheat leaf rust) of 100%, a pest or weed control at 10 ppm ([1]; 10 ppm, wheat leaf rust) of 100% and a pest or weed control at 50 ppm ([1]; 50 ppm, wheat leaf rust) of 100%. It also gave a pest or weed control at 100 ppm ([1]; 100 ppm, wheat leaf rust) of 100%, a pest or weed control at 2 ppm [2] of 100% and a pest or weed control at 10 ppm [2] of 100%. The pest or weed control at 50 ppm [2] was 100%, the pest or weed control at 100 ppm [2] was 100% and the pest or weed control at 2 ppm [3, 7] was 95%. It also gave a pest or weed control at 10 ppm [3, 7] of 100%, a pest or weed control at 50 ppm [3, 7] of 100% and a pest or weed control at 100 ppm [3, 7] of 100%. For the same compound, the pest or weed control at 2 ppm [4] was 90%, the pest or weed control at 10 ppm [4] was 100% and the pest or weed control at 50 ppm [4] was 100%. For the same compound, the pest or weed control at 100 ppm [4] was 100%, the pest or weed control at 100 ppm ([5]; cucumber gray mold rot) was 10% and the pest or weed control at 2 ppm [6, 8] was 100%. The pest or weed control at 10 ppm [6, 9] was 100%, the pest or weed control at 50 ppm [6, 10] was 100% and the pest or weed control at 100 ppm [6, 11] was 100%.
With `CO/N=C(/C(=O)OC)c1ccccc1CON=C(C)c1ccc(C=C(Br)Br)cc1` [Example 25, methyl-(E)-2-[[[[[2-[4-(2,2-dibromovinyl)phenyl](1-methyl)methylidene]amino]oxy]methyl]phenyl]-2-methoxyiminoacetate] the “WLR control value (C.V.)” value ([1]; 2 ppm, wheat leaf rust) was 100%, the “WLR control value (C.V.)” value ([1]; 10 ppm, wheat leaf rust) was 100% and the “WLR control value (C.V.)” value ([1]; 50 ppm, wheat leaf rust) was 100%. The “WLR control value (C.V.)” value ([1]; 100 ppm, wheat leaf rust) was 100%, the “RCB control value (C.V.)” value ([2]; 2 ppm) was 100% and the “RCB control value (C.V.)” value ([2]; 10 ppm) was 100%. For the same compound, the “RCB control value (C.V.)” value ([2]; 50 ppm) was 100%, the “RCB control value (C.V.)” value ([2]; 100 ppm) was 100% and the “TLB control value (C.V.)” value ([3]; 2 ppm) was 93%. For the same compound, the “TLB control value (C.V.)” value ([3]; 10 ppm) was 100%, the “TLB control value (C.V.)” value ([3]; 50 ppm) was 100% and the “TLB control value (C.V.)” value ([3]; 100 ppm) was 100%. For the same compound, the “RSB control value (C.V.)” value ([4]; 2 ppm) was 90%, the “RSB control value (C.V.)” value ([4]; 10 ppm) was 98% and the “RSB control value (C.V.)” value ([4]; 50 ppm) was 100%. For the same compound, the “RSB control value (C.V.)” value ([4]; 100 ppm) was 100%, the “CGM control value (C.V.)” value ([5]; cucumber gray mold rot) was 35% and the “BPM control value (C.V.)” value ([6]; 2 ppm, barley powdery mildew) was 100%. For the same compound, the “BPM control value (C.V.)” value ([6]; 10 ppm, barley powdery mildew) was 100%, the “BPM control value (C.V.)” value ([6]; 50 ppm, barley powdery mildew) was 100% and the “BPM control value (C.V.)” value ([6]; 100 ppm, barley powdery mildew) was 100%.
With `CO/N=C(/C(=O)OC)c1ccccc1COc1cc(Br)ccc1C=C(Br)Br` [Example 85, methyl-(E)-2-(2-((5-bromo-2-(2,2-dibromovinyl)phenoxy)methyl)phenyl)-2-methoxyiminoacetate] the pest or weed control at 2 ppm ([1]; Puccinia recondita, 2 ppm) was 80%, the pest or weed control at 10 ppm ([1]; Puccinia recondita, 10 ppm) was 99% and the pest or weed control at 50 ppm ([1]; Puccinia recondita, 50 ppm) was 100%. The pest or weed control at 100 ppm ([1]; Puccinia recondita, 100 ppm) was 100%, the pest or weed control at 2 ppm [2] was 70% and the pest or weed control at 10 ppm [2] was 90%. It also gave a pest or weed control at 50 ppm [2] of 100%, a pest or weed control at 100 ppm [2] of 100% and a pest or weed control at 10 ppm [3, 7] of 20%. For the same compound, the pest or weed control at 50 ppm [3, 7] was 100%, the pest or weed control at 100 ppm [3, 7] was 100% and the pest or weed control at 2 ppm [4] was 60%. The pest or weed control at 10 ppm [4] was 85%, the pest or weed control at 50 ppm [4] was 96% and the pest or weed control at 100 ppm [4] was 99%. For the same compound, the pest or weed control at 100 ppm [5] was 35%, the pest or weed control at 2 ppm ([6]; 2 ppm) was 25% and the pest or weed control at 10 ppm ([6]; 10 ppm) was 70%. It also gave a pest or weed control at 50 ppm ([6]; 50 ppm) of 97% and a pest or weed control at 100 ppm ([6]; 100 ppm) of 100%.
`CO/N=C(/C(=O)OC)c1ccccc1COc1ccc(C=C(Cl)Br)cc1` [Example 17, methyl-(2E)-2-(2-((4-(2-bromo-2-chlorovinyl)phenoxy)methyl)phenyl)-2-methoxyiminoacetate] showed a pest or weed control at 2 ppm ([1]; 2 ppm, wheat leaf rust) of 100%, a pest or weed control at 10 ppm ([1]; 10 ppm, wheat leaf rust) of 100% and a pest or weed control at 50 ppm ([1]; 50 ppm, wheat leaf rust) of 100%. It also gave a pest or weed control at 100 ppm ([1]; 100 ppm, wheat leaf rust) of 100%, a pest or weed control at 2 ppm [2] of 70% and a pest or weed control at 10 ppm [2] of 100%. The pest or weed control at 50 ppm [2] was 100%, the pest or weed control at 100 ppm [2] was 100% and the pest or weed control at 10 ppm [3, 7] was 10%. It also gave a pest or weed control at 50 ppm [3, 7] of 90%, a pest or weed control at 100 ppm [3, 7] of 100% and a pest or weed control at 100 ppm [4] of 90%. The pest or weed control at 100 ppm ([5]; cucumber gray mold rot) was 50%, the pest or weed control at 2 ppm [6, 8] was 35% and the pest or weed control at 10 ppm [6, 9] was 90%. The pest or weed control at 50 ppm [6, 10] was 93% and the pest or weed control at 100 ppm [6, 11] was 95%.
